In patent US20190000789A1, “COMPOSITION AND METHOD FOR TREATING INFECTIONS CAUSED BY VANCOMYCIN-RESISTANT INFECTIOUS AGENTS IN A SUBJECT” (priority 2015, published 2019):

What was measured:
Type in all cases: cell-based, Streptomyces coelicolor
[1] = system: S. coelicolor LAG4 (LAG2 ΔvanX); test: LC-MS analysis of peptidoglycan precursors, time course after D-Ala addition
Protocol: (§1) To investigate what the effect would be of the addition of excess of D-Ala on the accumulation of wild-type precursors, a time-course experiment was performed to follow the effect of D-Ala addition on the ratio between wild-type and resistant precursors. Therefore, 300 ml liquid-grown NMMP cultures were supplemented with either D-Ala or L-Ala (control) at 50 mM end concentration, and 10 ml samples were collected prior to and 1, 5, 15, 30, 60, 120 and 180 minutes after the addition of either alanine stereoisomer. Samples were immediately filtered by vacuum filtration, washed in 0.9% NaCl, biomass scraped off the filter, added to a tube containing 5% TCA and samples prepared as described above. […] However, addition of 50 mM D-Ala triggered the production of small amounts of wt precursor (1%) within 1 minute. After 15 minutes, this amount had increased to 4%, which appeared to be close to the maximum, with levels of wt precursors never exceeding 5%.
For the precursor isolation and identification, a modification of the method described previously by Hong and colleagues (Hong et al., 2004) was used. 10 μg vancomycin was added to the strains at the moment of inoculation. The strains were grown in NMMP (1% (w/v) Mannitol, 50 mM MgCl2) until mid-log phase (OD-0.3-0.4) and mycelia were harvested by centrifugation at 4° C. and washed in 0.9% NaCl. The mycelium was extracted with 5% cold trichloric acid (TCA) for 30 minutes at 4° C. This was centrifuged and the supernatant desalted on a Sephadex G-25 column (Illustra NAP-10 Columns, GE Healthcare, Pittsburgh), and concentrated by rotary evaporation. The concentrated precursors were dissolved in HPLC-grade water and separated by LC-MS using a gradient of 0-20% acetonitrile in water with 0.1% TFA. The elution was monitored at 254 nm and monitored by the sizes eluted (1193.8-1195.3). […]

[2] = system: S. coelicolor M145 ΔvanX (LAG3); test: MIC of vancomycin on MM agar plates with added D-Ala; details: M145 ΔvanX, 1000-fold lower D-Ala concentration than for M145
Excerpt: VanX effectively eradicates the D-Ala-D-Ala dipeptide, thereby counteracting the accumulation of wild-type precursors and supporting vancomycin resistance (Lessard and Walsh, 1999; Tan et al., 2002). Therefore, a vanX null mutant was created using a similar strategy as for ddl, replacing the coding region of vanX by the apramycin resistance cassette aacC4. The mutant was created in both the parental strain S. coelicolor M145 and in its ddl suppressor mutant LAG2, generating LAG3 (M145 ΔvanX) and LAG4 (M145 Δddl ΔvanX vanS::IS466A), respectively.
LAG4 produced 20% wt precursors prior to the addition of D-Ala.
(§2) Escherichia coli strains JM109 (Sambrook et al., 1989) and ET12567 (Kieser et al., 2000) were used for routine cloning procedures and for extracting non-methylated DNA, respectively. Cells of E. coli were grown in Luria-Berani broth (LB) at 37° C. Streptomyces coelicolor A3(2) M145 was the parent of all mutants described in this work. All media and routine Streptomyces techniques were carried out as described (Kieser et al., 2000). SFM (soy flour mannitol) agar plates were used for propagating S. coelicolor strains and to prepare spore suspensions. For liquid-grown cultures, S. coelicolor mycelia were grown in normal minimal media with phosphate (NMMP) supplemented with 1% (w/v) mannitol as the sole carbon source. The MIC of vancomycin against S. coelicolor M145 and its mutant derivatives were determined by growth on minimal media (MM) agar plates supplemented with 1% mannitol as the sole carbon source, and 0, 2, 4, 8, 16, 32, 64, 128, 256 or 512 μg/ml vancomycin, in combination with 0, 1, 5, 10 or 50 mM of D-Ala or L-Ala. The vanX deletion mutants have been tested with 1, 5, 10, 50 and 100 μM D-Ala and L-Ala.

[3] = system: S. coelicolor LAG2; test: LC-MS analysis of peptidoglycan precursors, including time course after alanine addition
Protocol: In order to get more insights into the synthesis of vancomycin-sensitive (i.e., wild-type) or the alternate vancomycin-resistant peptidoglycan, the pool of peptidoglycan precursors was analyzed by Liquid Chromatography coupled to Mass Spectrometry (LC-MS). When cells produce wild-type PG, only the MurNac-pentapeptide with a D-Ala-D-Ala terminus are detected, while vancomycin-resistant PG precursors have a D-Ala-D-Lac terminus. To analyze the precursors produced in S. coelicolor M145 and its mutant derivatives LAG1 (Δddl) and LAG2 (Δddl vanS::IS466A) in the presence or absence of vancomycin, the strains were grown until exponential phase, after which the cultures were harvested, washed and the precursors extracted with 5% TCA. The supernatants were desalted, concentrated and analyzed by LC-MS (see Materials and Methods section).
as §1
For the precursor isolation and identification, a modification of the method described previously by Hong and colleagues (Hong et al., 2004) was used. 10 μg vancomycin was added to the strains at the moment of inoculation. The strains were grown in NMMP (1% (w/v) Mannitol, 50 mM MgCl2) until mid-log phase (OD-0.3-0.4) and mycelia were harvested by centrifugation at 4° C. and washed in 0.9% NaCl. The mycelium was extracted with 5% cold trichloric acid (TCA) for 30 minutes at 4° C. This was centrifuged and the supernatant desalted on a Sephadex G-25 column (Illustra NAP-10 Columns, GE Healthcare, Pittsburgh), and concentrated by rotary evaporation. The concentrated precursors were dissolved in HPLC-grade water and separated by LC-MS using a gradient of 0-20% acetonitrile in water with 0.1% TFA. The elution was monitored at 254 nm and monitored by the sizes eluted (1193.8-1195.3).
For the measurement over time, the protocol was adjusted in the following way: 300 ml NMMP cultures were grown until exponential phase, at which point a 10 ml sample was taken (sample t=0) and 50 mM of D-Ala or L-Ala was added, followed by further sampling after 1, 5, 15, 30, 60, 120 and 180 minutes. Samples were rapidly filtered with a vacuum pump and washed with 0.9% (w/v) NaCl, mycelia scraped off the filter and transferred to 5% TCA.

[4] = system: S. coelicolor M145; test: MIC of vancomycin on MM agar plates with added D-Ala or L-Ala; details: M145, up to 50 mg/ml L-Ala (control)
Protocol: The naturally vancomycin-resistant model organism S. coelicolor M145 was used as the initial test system. The strain was grown on solid minimal medium (MM) agar plates with increasing amounts of D-Ala and vancomycin. D-Ala was thereby added in concentrations of 5, 10 and 50 mM and the effect on the MIC of vancomycin assessed. As a first control, L-Ala was added and, as a second control, no amino acids were added. […] This was not altered when the culture media were supplemented with up to 50 mg/ml L-Ala (Table 1 and FIG. 6).
as §2

[5] = system: S. coelicolor LAG2 (ddl suppressor mutant); test: as above; details: LAG2, L-Ala (control)
Protocol: VanS is the sensory kinase of a two-component system formed with VanR, and it has been shown previously that certain mutations in vanS will constitutively upregulate the vancomycin resistance cluster, explaining the viability of strain LAG2 in the absence of vancomycin.
as §2

Row | SMILES | wild-type precursor ([1]; LAG4, 3 hours after addition of D-Ala) [%] | wild-type precursor ([1]; LAG4, after addition of D-Ala, 1 and 5 minutes) [%] | wild-type precursor ([1]; LAG4, after addition of D-Ala, 15-30 minutes) [%] | stronger reduction of the MIC of vancomycin as compared to M145 [2] [fold] | wt precursor ([3]; LAG2, 50 mM D-Ala, after 15 minutes) [%] | wt precursor, maximum level ([3]; LAG2, 50 mM D-Ala, up to 180 minutes) [%] | wt precursor ([3]; LAG2, 50 mM D-Ala, within 1 minute) [%] | effect of L-Ala on the MIC of vancomycin [4] | effect of L-Ala on the MIC for vancomycin [5] | production of wt precursors ([3]; LAG2, 50 mM L-Ala (control))
1 | C[C@@H](N)C(=O)O [D-Ala, D-alanine] | 80 | 25 | 40 | 4 | 4 | ≤ 5 | 1 |  |  | 
2 | C[C@H](N)C(=O)O [L-Ala] |  |  |  |  |  |  |  | not altered | did not affect the MIC | did not activate the production of detectable levels
